Source: ChEMBL document CHEMBL1201862, “PubChem BioAssay data set” (2004)
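Tested at 5 concentrations; 48 h exposure; 96-well plates; endpoints linearly interpolated, else capped at highest concentration. At the GI50, growth is halved.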 The source made the active and inactive calls. No stated cut-off is given here; in the data, active = GI50 up to about 1.1 µM and inactive = higher.

Columns and labels:
Assay in all cases: DTP human tumour cell line panel, 48 h
A498 = test system: A498
MDA-MB-231 = test system: MDA-MB-231
BT-549 = test system: BT-549
SF-539 = test system: SF-539
SK-MEL-28 = test system: SK-MEL-28
MCF7 = test system: MCF7
NCI-H23 = test system: NCI-H23
Hs-578T = test system: Hs-578T
MDA-N = test system: MDA-N
HL-60 = test system: HL-60
NCI-H226 = test system: NCI-H226
CAKI-1 = test system: CAKI-1
OVCAR-4 = test system: OVCAR-4
OVCAR-8 = test system: OVCAR-8
HOP-92 = test system: HOP-92
SF-268 = test system: SF-268
HT-29 = test system: HT-29
T47D = test system: T47D
HCT-116 = test system: HCT-116
Malme-3M = test system: Malme-3M
RXF 393 = test system: RXF 393
SK-MEL-2 = test system: SK-MEL-2
NCI-H460 = test system: NCI-H460
CCRF-CEM = test system: CCRF-CEM
EKVX = test system: EKVX
ACHN = test system: ACHN
HOP-62 = test system: HOP-62
SW-620 = test system: SW-620
SR = test system: SR
HCT-15 = test system: HCT-15
DU-145 = test system: DU-145
U-251 = test system: U-251
IGROV-1 = test system: IGROV-1
NCI/ADR-RES = test system: NCI/ADR-RES
LOX IMVI = test system: LOX IMVI
MDA-MB-435 = test system: MDA-MB-435
SNB-19 = test system: SNB-19
786-0 = test system: 786-0
RPMI-8226 = test system: RPMI-8226
KM12 = test system: KM12
OVCAR-3 = test system: OVCAR-3
SK-MEL-5 = test system: SK-MEL-5
UACC-257 = test system: UACC-257
SN12C = test system: SN12C
SF-295 = test system: SF-295
K562 = test system: K562
HCC 2998 = test system: HCC 2998
A549 = test system: A549
UO-31 = test system: UO-31
MOLT-4 = test system: MOLT-4
NCI-H522 = test system: NCI-H522
UACC-62 = test system: UACC-62
OVCAR-5 = test system: OVCAR-5
TK-10 = test system: TK-10
M14 = test system: M14
PC-3 = test system: PC-3
COLO 205 = test system: COLO 205
SNB-75 = test system: SNB-75
SK-OV-3 = test system: SK-OV-3

CC(C)(C)OC(=O)NCCCNC1(c2cc3ccccc3s2)CCCCC1
GI50 (A498): 15.6 µM (inactive)
GI50 (MDA-MB-231): 17.6 µM (inactive)
GI50 (BT-549): 13.6 µM (inactive)
GI50 (SF-539): 18.4 µM (inactive)
GI50 (SK-MEL-28): 14.9 µM (inactive)
GI50 (MCF7): 15.9 µM (inactive)
GI50 (NCI-H23): 13 µM (inactive)
GI50 (Hs-578T): 19.4 µM (inactive)
GI50 (MDA-N): 15.1 µM (inactive)
GI50 (HL-60): 10.5 µM (inactive)
GI50 (NCI-H226): 29 µM (inactive)
GI50 (CAKI-1): 13.6 µM (inactive)
GI50 (OVCAR-4): 15.2 µM (inactive)
GI50 (OVCAR-8): 17.2 µM (inactive)
GI50 (HOP-92): 10 µM (inactive)
GI50 (SF-268): 16.7 µM (inactive)
GI50 (HT-29): 3.15 µM (inactive)
GI50 (T47D): 16.7 µM (inactive)
GI50 (HCT-116): 12 µM (inactive)
GI50 (Malme-3M): 15.9 µM (inactive)
GI50 (RXF 393): 14.8 µM (inactive)
GI50 (SK-MEL-2): 17.5 µM (inactive)
GI50 (NCI-H460): 14.3 µM (inactive)
GI50 (CCRF-CEM): 8.22 µM (inactive)
GI50 (EKVX): 14 µM (inactive)
GI50 (ACHN): 19.2 µM (inactive)
GI50 (HOP-62): 14.4 µM (inactive)
GI50 (SW-620): 15.5 µM (inactive)
GI50 (SR): 10.2 µM (inactive)
GI50 (HCT-15): 14.9 µM
GI50 (DU-145): 16.9 µM (inactive)
GI50 (U-251): 21.3 µM (inactive)
GI50 (IGROV-1): 16.7 µM (inactive)
GI50 (NCI/ADR-RES): 15.2 µM (inactive)
GI50 (LOX IMVI): 16.8 µM (inactive)
GI50 (MDA-MB-435): 14.7 µM (inactive)
GI50 (SNB-19): 13.6 µM (inactive)
GI50 (786-0): 14.9 µM (inactive)
GI50 (RPMI-8226): 3.84 µM (inactive)
GI50 (KM12): 17 µM (inactive)
GI50 (OVCAR-3): 13.8 µM (inactive)
GI50 (SK-MEL-5): 13.9 µM (inactive)
GI50 (UACC-257): 15.8 µM (inactive)
GI50 (SN12C): 15.3 µM (inactive)
GI50 (SF-295): 14.8 µM (inactive)
GI50 (K562): 10.5 µM (inactive)
GI50 (HCC 2998): 3.56 µM (inactive)
GI50 (A549): 12.6 µM (inactive)
GI50 (UO-31): 12.6 µM (inactive)
GI50 (MOLT-4): 12.5 µM (inactive)
GI50 (NCI-H522): 14.2 µM (inactive)
GI50 (UACC-62): 17.4 µM (inactive)
GI50 (OVCAR-5): 13.7 µM (inactive)
GI50 (TK-10): 16.6 µM (inactive)
GI50 (M14): 12 µM (inactive)
GI50 (PC-3): 18.8 µM (inactive)
GI50 (COLO 205): 12.3 µM (inactive)
GI50 (SNB-75): 15.6 µM (inactive)
GI50 (SK-OV-3): 13.2 µM (inactive)

COc1cc(C2c3cc4c(cc3CC3COC(=O)N32)OCO4)cc(OC)c1OC (configuration not stated)
GI50 (A498): 6.31 µM (inactive)
GI50 (MDA-MB-231): 3.71 µM (inactive)
GI50 (BT-549): 6.27 µM (inactive)
GI50 (SF-539): 2.39 µM (inactive)
GI50 (SK-MEL-28): 5.05 µM (inactive)
GI50 (MCF7): 3.84 µM (inactive)
GI50 (Hs-578T): 2.52 µM (inactive)
GI50 (MDA-N): 0.434 µM (active)
GI50 (HL-60): 2.08 µM (inactive)
GI50 (NCI-H226): 19.5 µM (inactive)
GI50 (CAKI-1): 3.65 µM (inactive)
GI50 (OVCAR-4): 14.1 µM (inactive)
GI50 (OVCAR-8): 4.03 µM (inactive)
GI50 (HOP-92): 14.1 µM (inactive)
GI50 (SF-268): 8.04 µM (inactive)
GI50 (HT-29): 2.12 µM (inactive)
GI50 (T47D): > 100 µM (inactive)
GI50 (HCT-116): 2.72 µM (inactive)
GI50 (Malme-3M): 2.83 µM (inactive)
GI50 (RXF 393): 1.57 µM (inactive)
GI50 (SK-MEL-2): 6.73 µM (inactive)
GI50 (NCI-H460): 4 µM (inactive)
GI50 (CCRF-CEM): 2.56 µM (inactive)
GI50 (EKVX): 4.76 µM (inactive)
GI50 (ACHN): 12.8 µM (inactive)
GI50 (HOP-62): 4.12 µM (inactive)
GI50 (SW-620): 2.13 µM (inactive)
GI50 (SR): 1.57 µM (inactive)
GI50 (HCT-15): 3.08 µM
GI50 (DU-145): 5.33 µM (inactive)
GI50 (U-251): 3.79 µM (inactive)
GI50 (IGROV-1): 7.13 µM (inactive)
GI50 (NCI/ADR-RES): 1.58 µM (inactive)
GI50 (LOX IMVI): 3.14 µM (inactive)
GI50 (MDA-MB-435): 0.404 µM (active)
GI50 (SNB-19): 4.26 µM (inactive)
GI50 (786-0): 3.09 µM (inactive)
GI50 (RPMI-8226): 3.13 µM (inactive)
GI50 (KM12): 2.44 µM (inactive)
GI50 (OVCAR-3): 1.93 µM (inactive)
GI50 (SK-MEL-5): 1.96 µM (inactive)
GI50 (UACC-257): 26.1 µM (inactive)
GI50 (SN12C): 4.73 µM (inactive)
GI50 (SF-295): 0.729 µM (active)
GI50 (K562): 1.57 µM (inactive)
GI50 (HCC 2998): 2.93 µM (inactive)
GI50 (A549): 3.08 µM (inactive)
GI50 (UO-31): 5.33 µM (inactive)
GI50 (MOLT-4): 3.67 µM (inactive)
GI50 (NCI-H522): 1.57 µM (inactive)
GI50 (UACC-62): 2.61 µM (inactive)
GI50 (OVCAR-5): > 53.1 µM (inactive)
GI50 (TK-10): > 22.9 µM (inactive)
GI50 (M14): 3.37 µM (inactive)
GI50 (PC-3): 1.99 µM (inactive)
GI50 (COLO 205): 1.92 µM (inactive)
GI50 (SNB-75): 14.8 µM (inactive)
GI50 (SK-OV-3): 3.03 µM (inactive)
